Test results: patent US20200323203A1, “SYNERGISTIC PESTICIDAL COMPOSITIONS AND METHODS FOR DELIVERY OF ACTIVE INGREDIENTS” (0903608 B.C. Ltd., priority 2017, published 2020)
Values after ≈ are worked out from the molar mass of the structure shown. Values joined by “and” are separate entries in the source; they are usually repeats but may differ in a detail not shown here. Equal entries are not always repeated. Values belong to the molecule of their own block, whether it stands above or below them.

How the values were obtained:
Fusarium oxysporum = experiment: Synergistic Growth Inhibition Assay (MIC / FIC index), Fusarium oxysporum; type: cell-based; conditions: individual compound alone
Protocol: (§1) In some embodiments, the synergistic action between the pesticidal active ingredient, and the at least one C6-C10 (or alternatively C11 or C12) saturated or unsaturated aliphatic acid components of the pesticidal compositions according to embodiments of the present disclosure was tested using a Synergistic Growth Inhibition Assay, which is derived from and related to a checkerboard assay as is known in the art for testing of combinations of antimicrobial agents. In the Synergistic Growth Inhibition Assay used in accordance with some embodiments of the present disclosure, multiple dilutions of combinations of pesticidal active ingredient and at least one C6-C10 saturated or unsaturated aliphatic acid agents are tested in individual cells for inhibitory activity against a target pest or pathogenic organism. In one such embodiment, the combinations of pesticidal active ingredient and C6-C10 (or alternatively C11 or C12) saturated or unsaturated aliphatic acid agents may preferably be tested in decreasing concentrations. In a further such embodiment, the combinations of pesticidal active ingredient and C6-C10 (or alternatively C11 or C12) saturated or unsaturated aliphatic acid agents may be tested in increasing concentrations. These multiple combinations of the pesticidal active ingredient and at least one C6-C10 (or alternatively C11 or C12) saturated or unsaturated aliphatic acid agents may be prepared in 96-well microtiter plates. In one such embodiment, the Synergistic Growth Inhibition Assay then comprises rows which each contain progressively decreasing concentrations of the pesticidal active ingredient and one or more C6-C10 (or alternatively C11 or C12) saturated or unsaturated aliphatic acid agents to test for the MIC of the agents in combination at which growth of the target pest or pathogen is inhibited. Thus, each well of the microtiter plate is a unique combination of the two agents, at which inhibitory efficacy of the combination against the target pest or pathogen can be determined.
In one embodiment according to the present disclosure, for each row of microtiter cells in the Synergistic Growth Inhibition Assay, the FIC index is calculated from the lowest concentration of the pesticidal active ingredient and one or more C6-C10 saturated or unsaturated aliphatic acid agents necessary to inhibit growth of a target pest or pathogen. The FIC of each component is derived by dividing the concentration of the agent present in that well of the microtiter plate by the minimal inhibitory concentration (MIC) needed of that agent alone to inhibit growth of the target pest or pathogen. The FIC index is then the sum of these values for both agents in that well of the microtiter plate. The FIC index is calculated for each row as follows:
FICindex=MICa/MICA+MICb/MICB
Fractional inhibitory concentration indices may then used as measure of synergy. […] When the FIC index is equal to 1, the combination is additive.
Then, serial dilutions of these initial compositions in successive wells in the row of the microtiter plate were used to assay the pesticidal composition under the same conditions to determine the concentration of the composition combining the two agents corresponding to the microtiter well in which growth inhibition of the target pest or organism ceases. […]

[1] = Solubility / effective solubilized concentration in 10% DMSO/90% PDB by HPLC; conditions: aqueous with cosolvent or surfactant or cyclodextrin, kinetic from dmso stock
physchem = conditions: aqueous with cosolvent or surfactant or cyclodextrin, kinetic from dmso stock
Sclerotinia sclerotiorum = experiment: Synergistic Growth Inhibition Assay (MIC / FIC index), Sclerotinia sclerotiorum; type: cell-based
Protocol: as §1, with “In one such embodiment, the Synergistic Growth Inhibition Assay then comprises rows which each contain progressively decreasing concentrations of the pesticidal active ingredient and one or more C6-C10 (or alternatively C11 or C12) saturated or unsaturated aliphatic acid agents to test for the MIC of the agents in combination at which growth of the target pest or pathogen is inhibited.” left out
(§2) In one embodiment according to the present disclosure, for each row of microtiter cells in the Synergistic Growth Inhibition Assay, the FIC index is calculated from the lowest concentration of the pesticidal active ingredient and one or more C6-C10 saturated or unsaturated aliphatic acid agents necessary to inhibit growth of a target pest or pathogen. […] The FIC index is calculated for each row as follows: […]

Botrytis cinerea = experiment: Synergistic Growth Inhibition Assay (MIC / FIC index), Botrytis cinerea; type: cell-based
Protocol: as §1, with “In one such embodiment, the Synergistic Growth Inhibition Assay then comprises rows which each contain progressively decreasing concentrations of the pesticidal active ingredient and one or more C6-C10 (or alternatively C11 or C12) saturated or unsaturated aliphatic acid agents to test for the MIC of the agents in combination at which growth of the target pest or pathogen is inhibited.” left out
as §2

[2] = effective solubilized concentration of working stock solution, DMSO stock diluted 10-fold in PDB, verified by HPLC
[3] = 10% DMSO/90% potato dextrose broth (PDB)
[4] = solubility, in 10% DMSO/90% PDB, HPLC

SMILES: CCCCCC(=O)O [Hexanoic acid, hexanoic acid]
MIC (A) / MIC (B) of the compound used alone (Fusarium oxysporum; incubation period of 48 hours): 0.1562 mg/mL

SMILES: N#Cc1c(Cl)c(Cl)c(Cl)c(C#N)c1Cl [Chlorothalonil]
solubility [1, 2]: 2 µg/mL (≈ 7.52 µM)

SMILES: CCCC1COC(Cn2cncn2)(c2ccc(Cl)cc2Cl)O1 (centres unmarked) [Propiconazole]
solubility [1, 3]: 89 µg/mL (≈ 260 µM)

SMILES: COCC(=O)N(c1c(C)cccc1C)C(C)C(=O)OC (centres unmarked) [Metalaxyl]
solubility [1, 2]: 316 µg/mL (≈ 1130 µM)

SMILES: Fc1ccc([C@]2(Cn3cncn3)O[C@H]2c2ccccc2Cl)cc1 (racemic) [Epoxiconazole]
solubility (physchem): 30 µg/mL (≈ 91 µM)

SMILES: C/C=C/C=C/C(=O)[O-].[K+] [(2E,4E)-2,4-hexadienoic acid, potassium salt]
MIC (A) / MIC (B) of the compound used alone (Fusarium oxysporum; 24 hour incubation): 0.625 mg/mL

SMILES: C/C=C(/C)C(=O)O[C@H]1C[C@@H](OC(C)=O)[C@@]2(C)CO[C@H]3[C@H]4O[C@@H]5C[C@@H](c6ccoc6)C(C)=C5[C@@]4(C)[C@H](CC(=O)OC)[C@]1(C)[C@@H]32 [Salannin]
MIC (Sclerotinia sclerotiorum; Sclerotinia sclerotiorum, […], Compound A alone, incubation 7 days): 500 µg/mL

SMILES: COC(=O)N(OC)c1ccccc1COc1ccn(-c2ccc(Cl)cc2)n1 [Pyraclostrobin, pyraclostrobin]
solubility [1, 2]: 15 µg/mL (≈ 38.7 µM) | solubility [1, 4]: 15.4 µg/mL (≈ 39.7 µM)

SMILES: N#Cc1c[nH]cc1-c1cccc2c1OC(F)(F)O2 [Fludioxonil, fludioxonil]
solubility [1, 2]: 21 µg/mL (≈ 84.6 µM) | solubility [1, 4]: 15.4 µg/mL (≈ 62 µM)

SMILES: CC(C)(C)C(O)(CCc1ccc(Cl)cc1)Cn1cncn1 (centres unmarked) [Tebuconazole]
solubility [1, 3]: 450 µg/mL (≈ 1460 µM)

MIC (B) (Sclerotinia sclerotiorum; Compound B alone, incubation 7 days): 0.05 mg/mL | MIC (B) (Botrytis cinerea; Compound B alone, incubation 48 hours): 0.05 mg/mL
SMILES: CCCCCCCCCCCC(=O)O [Dodecanoic acid, dodecanoic acid]

SMILES: CO/C=C(/C(=O)OC)c1ccccc1Oc1cc(Oc2ccccc2C#N)ncn1 [Azoxystrobin]
MIC (A) / MIC (B) of the compound used alone (Sclerotinia sclerotiorum; individual compound alone, incubation period of 7 days): 0.15 mg/mL | MIC (A) / MIC (B) of the compound used alone (Botrytis cinerea; individual compound alone, incubation period of 48 hours): 0.0375 mg/mL and 0.075 mg/mL | MIC (A) / MIC (B) of the compound used alone (Fusarium oxysporum; incubation period of 48 hours): 0.075 mg/mL and 0.15 mg/mL

SMILES: CCCCCCCCCC(=O)O [Decanoic acid, decanoic acid]
MIC (Botrytis cinerea; Botrytis cinerea, 96 h, Compound B alone, incubation 4 days): 500 µg/mL | MIC (A) / MIC (B) of the compound used alone (Fusarium oxysporum; 24 hour incubation): 0.25 mg/mL

SMILES: CCCCCCCCCC(=O)[O-].[K+] [Decanoic acid, potassium salt, decanoic acid, potassium salt]
MIC (A) / MIC (B) of the compound used alone (Fusarium oxysporum; 24 hour incubation): 0.07812 mg/mL
